Here are results for 19 compounds from patent US20230183243A1, “HETEROARYL DERIVATIVES AND PHARMACEUTICAL COMPOSITION COMPRISING SAME AS ACTIVE INGREDIENT” (VORONOI INC., priority 2019, published 2023).

The target of one experiment is T1, TTK (Homo sapiens, UniProt P33981).
T1 sequence (P33981 1-857): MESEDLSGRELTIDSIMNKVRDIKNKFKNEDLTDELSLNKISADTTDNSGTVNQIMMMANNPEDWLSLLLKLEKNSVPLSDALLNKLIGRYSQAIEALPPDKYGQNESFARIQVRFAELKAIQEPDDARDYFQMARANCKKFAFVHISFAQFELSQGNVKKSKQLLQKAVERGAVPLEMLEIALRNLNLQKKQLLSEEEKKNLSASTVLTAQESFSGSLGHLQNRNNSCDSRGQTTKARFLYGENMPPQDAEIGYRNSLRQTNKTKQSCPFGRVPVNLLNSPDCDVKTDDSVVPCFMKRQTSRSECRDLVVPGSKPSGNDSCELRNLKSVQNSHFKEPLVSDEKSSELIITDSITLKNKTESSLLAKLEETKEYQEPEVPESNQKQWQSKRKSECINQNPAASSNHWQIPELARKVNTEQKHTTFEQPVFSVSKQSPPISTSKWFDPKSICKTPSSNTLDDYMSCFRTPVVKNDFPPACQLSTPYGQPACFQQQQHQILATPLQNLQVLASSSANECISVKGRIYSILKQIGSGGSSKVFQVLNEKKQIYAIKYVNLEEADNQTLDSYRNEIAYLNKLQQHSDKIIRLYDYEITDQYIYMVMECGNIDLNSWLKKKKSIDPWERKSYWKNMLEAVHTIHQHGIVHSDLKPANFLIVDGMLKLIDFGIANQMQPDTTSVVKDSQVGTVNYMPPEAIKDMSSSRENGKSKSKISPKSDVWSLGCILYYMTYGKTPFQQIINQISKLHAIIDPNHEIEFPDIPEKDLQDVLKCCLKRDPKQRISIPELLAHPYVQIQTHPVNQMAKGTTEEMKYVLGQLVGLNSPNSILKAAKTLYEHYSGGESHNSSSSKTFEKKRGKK
In words: TTK enzyme activity, ADP-Glo kinase assay. In kind it is biochemical. Details: purchased SignalChem T20-10G. Particulars: purified human TTK, ATP 10 μM, 25° C., 2 hours. On the procedure:
To evaluate an inhibitory activity of the compound according to the present invention against TTK (MPS1), an experiment was performed as follows.
Each of the Example compounds was reacted with a purified human TTK (SignalChem #T20-10G) enzyme to evaluate an ability to inhibit an enzyme using a method as described below. A composition of 40 mM Tris-HCl (pH 7.4), 20 mM MgCl2, 0.5 mg/mL BSA, and 50 μM DTT was used as a reaction buffer, and all reactions of test substances were performed in the reaction buffer. […] In the test, purified ATP (10 μM) and an enzyme substrate (0.2 μg) were reacted with a human TTK (25 ng) enzyme at 25° C. for 2 hours, and the enzyme activity was determined using an in vitro ADP-Glo™ kinase assay (Promega). […] The degree of inhibition of the enzyme activity according to the treatment concentration of each of the compounds was calculated based on the fluorescence of the enzyme activity of the solvent control which was not treated with the compound.

For a further experiment, the system named is MDA-MB-231 cells. Kind of experiment: Inhibition of proliferation of triple-negative breast cancer cells, CellTiter-Glo. In kind it is cell-based. Particulars: Homo sapiens, 120 h; MDA-MB-231, cultured for 5 days. On the procedure: Specifically, the following test was performed in order to evaluate the inhibitory activity of the compound according to the present invention against the cell proliferation in triple-negative breast cancer cells (TNBCs).
Cells were seeded in 180 μL of a culture broth at a density of 2,000 to 3,000 cells/well in a white clear bottom 96-well plate (Corning) according to the growth ability of each cell, and then cultured for 24 hours under conditions of 5% CO2 and 37° C. Thereafter, the compound was prepared by diluting a 10 mM stock solution three-fold with 100% DMSO at a total of 12 concentrations so that a peak concentration of the compound was in a range of 10 mM to 0.05 μM, and the diluted compound was then diluted in each cell culture medium so that a final concentration of the compound was in a range of 100 μM to 0.5 nM. 20 μL of a diluted solution diluted with a medium was added to the cell solution in which cells were seeded in the 96-well plate on the previous day so that a final concentration of the diluted solution was in a range of 10 μM to 0.05 nM. Each of the cells was cultured for 5 days. To check cell viability, a mixture provided in a CellTiter-Glo® Luminescent Cell Viability Assay Kit (Promega) was added to each of the cultured cell media, and cultured for another 10 minutes under a condition of 37° C. Then, a degree of luminescence (fluorescence) was measured. A degree of inhibition of the cell growth according to the treatment concentration of each of the compounds was calculated based on the fluorescence of the solvent control cells which were not treated with the compound.

pIC50: −log10 of the molar value.

For orientation: pIC50 means −log10 of the IC50, conventionally taken in molar units. Broadly, the GI50 is the concentration at which growth is held to half of that of the control. A higher GI50 goes with lower sensitivity of the cells. As to `CCCCNc1nc(Nc2ccc(-c3nncn3C)cc2OCC)nc2[nH]cc(C#N)c12` [Example 11, 4-(butylamino)-2-((2-ethoxy-4-(4-methyl-4H-1,2,4-triazol-3-yl)phenyl)amino)-7H-pyrrolo[2,3-d] pyrimidine-5-carbonitrile], the pIC50 on TTK was > 7.30. Further, the GI50 in the experiment on MDA-MB-231 cells is < 100 nM.
On the same counts, the results for `COc1cc(-c2ccnn2C)ccc1Nc1nc(NCC(C)(C)C)c2c(C#N)c[nH]c2n1` [Example 12, 2-((2-methoxy-4-(1-methyl-1H-pyrazol-5-yl)phenyl)amino)-4-(neopentylamino)-7H-pyrrolo[2,3-d] pyrimidine-5-carbonitrile] are > 7.30 and > 1000 nM.
For `CCOc1cc(-c2nncn2C)ccc1Nc1nc(NCCS(C)(=O)=O)c2c(C#N)c[nH]c2n1` [Example 14, 2-((2-ethoxy-4-(4-methyl-4H-1,2,4-triazol-3-yl)phenyl)amino)-4-((2-(methylsulfonyl)ethyl)amino)-7H-pyrrolo[2,3-d] pyrimidine-5-carbonitrile], in that order: > 7.30 and 100 to 1000 nM.
For `COc1cc(-c2nccs2)ccc1Nc1nc(NC2CCCC2)c2c(C#N)c[nH]c2n1` [Example 17, 4-(cyclopentylamino)-2-((2-methoxy-4-(thiazol-2-yl)phenyl)amino)-7H-pyrrolo[2,3-d] pyrimidine-5-carbonitrile], on TTK, the negative-log IC50 (pIC50) was 6.00 to 6.70. The GI50 in the experiment with MDA-MB-231 cells was < 100 nM.
On the same counts, the results for `COc1cc(-c2c(C)noc2C)ccc1Nc1nc(NC2CCCCC2)c2c(C#N)c[nH]c2n1` [Example 18, 4-(cyclohexylamino)-2-((4-(3,5-dimethylisoxazol-4-yl)-2-methoxyphenyl)amino)-7H-pyrrolo[2,3-d] pyrimidine-5-carbonitrile] are > 7.30 and < 100 nM.
Take `COc1cc(-c2cnn(C3CCOCC3)c2)ccc1Nc1nc(NC2CCCCC2)c2c(C#N)c[nH]c2n1` [Example 19, 4-(cyclohexylamino)-2-((2-methoxy-4-(1-(tetrahydro-2H-pyran-4-yl)-1H-pyrazol-4-yl)phenyl)amino)-7H-pyrrolo[2,3-d] pyrimidine-5-carbonitrile]: the pIC50 at TTK is 6.70 to 7.30. For the same compound, in the experiment on MDA-MB-231 cells, the GI50 is < 100 nM.
Turning to `COc1cc(-c2cnn(C3COC3)c2)ccc1Nc1nc(NC2CCCCC2)c2c(C#N)c[nH]c2n1` [Example 20, 4-(cyclohexylamino)-2-((2-methoxy-4-(1-(oxetan-3-yl)-1H-pyrazol-4-yl)phenyl)amino)-7H-pyrrolo[2,3-d] pyrimidine-5-carbonitrile], the pIC50 against TTK is > 7.30. Also, in the experiment on MDA-MB-231 cells, the concentration for 50% growth inhibition (GI50) is < 100 nM.
On the same counts, the results for `CC(=O)N1CCN(Cc2ccc(-c3ccc(Nc4nc(NC5CCCCC5)c5c(C#N)c[nH]c5n4)cc3)cc2)CC1` [Example 21] are 6.70 to 7.30 and 100 to 1000 nM.
For `N#Cc1c[nH]c2nc(Nc3ccc(-c4ccc(CN5CCN(C6CC6)CC5)cc4)cc3)nc(NC3CCCCC3)c12` [Example 22, 4-(cyclohexylamino)-2-((4′-((4-cyclopropylpiperazin-l-yl)methyl)-[1,1′-biphenyl]-4-yl)amino)-7H-pyrrolo[2,3-d] pyrimidine-5-carbonitrile], in that order: > 7.30 and 100 to 1000 nM.
For `COc1cc(-c2ccc(CN3CCN(C(C)=O)CC3)cc2)ccc1Nc1nc(NC2CCCCC2)c2c(C#N)c[nH]c2n1` [Example 23, 2-((4′-((4-acetylpiperazin-1-yl)methyl)-3-methoxy-[1,1′-biphenyl]-4-yl)amino)-4-(cyclohexylamino)-7H-pyrrolo[2,3-d] pyrimidine-5-carbonitrile], in that order: 6.70 to 7.30 and < 100 nM.
Take `COc1cc(-c2ccc(F)nc2)ccc1Nc1nc(NC2CCCCC2)c2c(C#N)c[nH]c2n1` [Example 24, 4-(cyclohexylamino)-2-((4-(6-fluoropyridin-3-yl)-2-methoxyphenyl)amino)-7H-pyrrolo[2,3-d] pyrimidine-5-carbonitrile]: on TTK, the pIC50 was > 7.30. The GI50 with MDA-MB-231 cells was < 100 nM.
For `COc1cc(-c2cn(C)nn2)ccc1Nc1nc(NC2CCCCC2)c2c(C#N)c[nH]c2n1` [Example 25, 4-(cyclohexylamino)-2-((2-methoxy-4-(1-methyl-1H-1,2,3-triazol-4-yl)phenyl)amino)-7H-pyrrolo[2,3-d] pyrimidine-5-carbonitrile], in that order: 6.00 to 6.70 and < 100 nM.
For `COc1cc(-c2ncnn2C)ccc1Nc1nc(NC2CCCCC2)c2c(C#N)c[nH]c2n1` [Example 26, 4-(cyclohexylamino)-2-((2-methoxy-4-(l-methyl-1H-1,2,4-triazol-5-yl)phenyl)amino)-7H-pyrrolo[2,3-d] pyrimidine-5-carbonitrile], in that order: 6.70 to 7.30 and < 100 nM.
For `COc1cc(-c2ncn(C)n2)ccc1Nc1nc(NC2CCCCC2)c2c(C#N)c[nH]c2n1` [Example 27, 4-(cyclohexylamino)-2-((2-methoxy-4-(1-methyl-1H-1,2,4-triazol-3-yl)phenyl)amino)-7H-pyrrolo[2,3-d] pyrimidine-5-carbonitrile], the pIC50 against TTK is > 7.30. For the same compound, the GI50 in the experiment on MDA-MB-231 cells is < 100 nM.
On the same counts, the results for `CC(C)COc1cc(N2CCCC2=O)ccc1Nc1nc(NC2CCCC2)c2c(C#N)c[nH]c2n1` [Example 28, 4-(cyclopentylamino)-2-((2-isobutoxy-4-(2-oxopyrrolidin-1-yl)phenyl)amino)-7H-pyrrolo[2,3-d] pyrimidine-5-carbonitrile] are 6.00 to 6.70 and > 1000 nM.
In the case of `COc1cc(-c2cncn2C)ccc1Nc1nc(NC2CCCC2)c2c(C#N)c[nH]c2n1` [Example 30, 4-(cyclopentylamino)-2-((2-methoxy-4-(1-methyl-1H-imidazol-5-yl)phenyl)amino)-7H-pyrrolo[2,3-d] pyrimidine-5-carbonitrile], the pIC50 at TTK is > 7.30. Further, the GI50 in the experiment on MDA-MB-231 cells was < 100 nM.
On the same counts, the results for `COc1cc(-c2nnc3n2CCC3)ccc1Nc1nc(NC2CCCCC2)c2c(C#N)c[nH]c2n1` [Example 31, 4-(cyclohexylamino)-2-((4-(6,7-dihydro-5H-pyrrolo[2,1-c] [1,2,4]triazol-3-yl)-2-methoxyphenyl)amino)-7H-pyrrolo[2,3-d] pyrimidine-5-carbonitrile] are > 7.30 and < 100 nM.
Take `COc1cc(N2CCCC2=O)ccc1Nc1nc(O[C@H]2CC[C@@](C)(O)CC2)c2c(C#N)c[nH]c2n1` [Example 32, 4-(((1s,4s)-4-hydroxy-4-methylcyclohexyl)oxy)-2-((2-methoxy-4-(2-oxopyrrolidin-1-yl)phenyl)amino)-7H-pyrrolo[2,3-d] pyrimidine-5-carbonitrile 2,2,2-trifluoroacetate]: on TTK, the pIC50 was > 7.30. Also, the GI50 with MDA-MB-231 cells was < 100 nM.
On TTK, `Cn1nccc1-c1ccc(Nc2nc(NC3CCCC3)c3c(C#N)c[nH]c3n2)c2c1CCO2` [Example 33, 4-(cyclopentylamino)-2-((4-(1-methyl-1H-pyrazol-5-yl)-2,3-dihydrobenzofuran-7-yl)amino)-7H-pyrrolo[2,3-d] pyrimidine-5-carbonitrile] gave a pIC50 of 6.70 to 7.30. Moreover, the GI50 in the experiment with MDA-MB-231 cells was < 100 nM.
